Measurements: patent US6627581B1, “Cyclopropyl-anellated 3-(4,5-dihydroisoxazol-3-yl)-substituted benzoylpyrazoles” (BASF Aktiengesellschaft, priority 1999, dated 2003)

Key:
Setaria faberi = test: greenhouse post-emergence herbicidal test; type: in vivo; conditions: Setaria faberi (giant foxtail), application rates of 0.25 or 0.125 kg/ha, 2 to 4 weeks
Text: (§1) The cultivation containers used were plastic pots containing loamy sand with approximately 3.0% of humus as the substrate. The seeds of the test plants were sown separately for each species.
(§2) For the post-emergence treatment, the test plants were first grown to a height of from 3 to 15 cm, depending on the plant habit, and only then treated with the active compounds which had been suspended or emulsified in water. The test plants were for this purpose either sown directly and grown in the same containers, or they were first grown separately as seedlings and transplanted into the test containers a few days prior to treatment. The application rate for the post-emergence treatment was 0.25 or 0.125 kg of a.s. (active substance)/ha.
(§3) Depending on the species, the plants were kept at 10-25° C. or 20-35° C. The test period extended over from 2 to 4 weeks. During this time, the plants were tended, and their response to the individual treatments was evaluated.
(§4) The evaluation was carried out using a scale from 0 to 100. 100 means no emergence of the plants, or complete destruction of at least the aerial parts and 0 means no damage, or normal course of growth.
(§5) The plants used in the greenhouse experiments were of the following species: […]

Echinochloa crus galli = test: greenhouse post-emergence herbicidal test; type: in vivo; conditions: Echinochloa crus galli (barnyardgrass), application rates of 0.25 or 0.125 kg/ha, 2 to 4 weeks
Text: as §1, §2, §3, §4, §5

Amaranthus retroflexus = test: greenhouse post-emergence herbicidal test; type: in vivo; conditions: Amaranthus retroflexus (pig weed), application rates of 0.25 or 0.125 kg/ha, 2 to 4 weeks
Text: as §1, §2, §3, §4, §5

Chenopodium album = test: greenhouse post-emergence herbicidal test; type: in vivo; conditions: Chenopodium album (lambsquaters), application rates of 0.25 or 0.125 kg/ha, 2 to 4 weeks
Text: as §1, §2, §3, §4, §5

Polygonum persicaria = test: greenhouse post-emergence herbicidal test; type: in vivo; conditions: Polygonum persicaria (ladysthumb), application rates of 0.25 or 0.125 kg/ha, 2 to 4 weeks
Text: as §1, §2, §3, §4, §5

Avena fatua = test: greenhouse post-emergence herbicidal test; type: in vivo; conditions: Avena fatua (wild oat), application rates of 0.25 or 0.125 kg/ha, 2 to 4 weeks
Text: as §1, §2, §3, §4, §5

SMILES | melting point [°C] | also measured
Cc1c(C(=O)c2cnn(C(C)(C)C)c2O)ccc(S(C)(=O)=O)c1C1=NOC2CC12 (centres unmarked) [Compound 2.1, 4-[2-Methyl-3-(2-oxa-3-aza-bicyclo[3.1.0]hex-3-en-4-yl)-4-methylsulfonylbenzoyl]-5-hydroxy-1-tert-butyl-1H-pyrazole] | 69 to 74 | 
Cc1c(C(=O)c2cnn(C)c2O)ccc(S(C)(=O)=O)c1C1=NOC2CC12 (centres unmarked) [Compound 2.3, 4-[2-Methyl-3-(2-oxa-3-azabicyclo[3.1.0]hex-3-en-4-yl)-4-methyl-sulfonylbenzoyl]-5-hydroxy-1-methyl-1H-pyrazole] | 106 to 112 | 
Cc1c(C(=O)c2cnn(C(C)C)c2O)ccc(S(C)(=O)=O)c1C1=NOC2CC12 (centres unmarked) [Compound 2.4] | 90 to 95 | 
Cc1c(C(=O)c2cnn(C)c2O)ccc(S(C)(=O)=O)c1C1=NOC2(C)CC12 (centres unmarked) [Compound 2.7] | 98 to 102 | 
Cc1c(C(=O)c2cnn(C(C)(C)C)c2O)ccc(S(C)(=O)=O)c1C1=NOC2(C)CC12 (centres unmarked) [Compound 2.10] | 90 to 95 | 
Cc1c(C(=O)c2cnn(C(C)C)c2O)ccc(S(C)(=O)=O)c1C1=NOC2(C)CC12 (centres unmarked) [Compound 2.11] | 67 to 70 | 

Further lines, with some results ahead:

melting point [°C] | SMILES | also measured
94 to 97 | CCn1ncc(C(=O)c2ccc(S(C)(=O)=O)c(C3=NOC4CC34)c2C)c1O (centres unmarked) [Compound 2.2] | 
89 to 91 | Cc1nn(C)c(O)c1C(=O)c1ccc(S(C)(=O)=O)c(C2=NOC3CC23)c1C (centres unmarked) [Compound 2.5] | post-emergence action (Setaria faberi): very good; post-emergence action (Echinochloa crus galli): very good; post-emergence action (Amaranthus retroflexus): very good; post-emergence action (Chenopodium album): very good; post-emergence action (Polygonum persicaria): very good; post-emergence action (Avena fatua): very good
99 to 103 | Cc1c(C(=O)c2cnn(C)c2O)ccc(S(C)(=O)=O)c1C1=NOC2CC12C (centres unmarked) [Compound 2.13] | 
75 to 80 | Cc1c(C(=O)c2cnn(C(C)C)c2O)ccc(S(C)(=O)=O)c1C1=NOC2CC12C (centres unmarked) [Compound 2.14] | 
110 to 115 | Cc1c(C(=O)c2cnn(C(C)(C)C)c2O)ccc(S(C)(=O)=O)c1C1=NOC2CC12C (centres unmarked) [Compound 2.16] | 
